These results are taken from article PMC12323867 (RSC Medicinal Chemistry, 2025).

SMILES strings stand for the structures. “Also recorded” adds a separate entry of the source. Like-named read-outs stand apart in the source and are kept apart here.

One series relates to H3K4me2 in HCT116 cells. The series is described as follows: Histone methylation H3K4me2 by western blot. The class given is cell-based, human. The conditions noted are these: for H3K4me2 histone methyl marker: HCT116, TCP series conditions (0.2–20 μM). As to the method:
We next screened 25–33 and SP2509 over a concentration range of 0.1–10 μM in HCT116 cells (obtained from ATCC, CCL-247) and determined LSD1 abundance after 24 hours with an antibody for LSD1 (Fig. S4 ^†). […] Using the same conditions, we also determined the effects of SP2509, 25, 27, 28, 30 and 31 on histone H3 lysine 4 dimethyl (H3K4me2) a validated substrate for LSD1 using a specific antibody for H3K4me2 (Fig. S4 ^†).
Compounds 39–41, 49, 52 and 54 were screened for LSD1 degradation in HCT116 cells using a specific antibody for LSD1. This was performed side-by-side with TCP. Compounds were tested at concentration ranges of 0.2–20 μM and LSD1 abundance was quantified at 24 hours (Fig. S5 ^†). 49, 52 and 54 were also evaluated at 48 and 72 hours. […] We also determined the effects of these compounds on the histone methyl marker H3K4me2 (Fig. S5 and S6 ^†).
2.5 Protocols for LSD1 degradation and histone methylation in HCT116 cells HCT116 human colon carcinoma cells were grown in Dulbecco’s Modified Eagle Medium (DMEM) supplemented with Fetal Bovine Serum (FBS, 10% final concentration) and 1x glutamine/penicillin/streptomycin. Cells were incubated at 37 °C and 5% CO2. Cells were treated with compounds (0.1-20 µM) with a final DMSO volume of 0.04%. DMSO (0.04%) treated and untreated (WT) cells were included as controls.
(§1) HCT116 cells were seeded into six well plates (400000 cells per well) and after requisite compound treatment time (24h, 48h, 72h) cells were harvested and either snap-frozen in liquid nitrogen or lysed in lysis buffer (50mM Tris-HCl, 150 mM NaCl, 0.5% NP-40, 0.5% Triton X-100 + protease inhibitor) on ice for 30 mins. This was centrifuged (15000 rpm, 4 °C, 15 mins) and the supernatant collected.
H2SO4 (0.4 M, equal volume) was added to the pellets for histone extraction and the tubes incubated overnight at 4 °C. Following this, the histone extract was centrifuged (15000 rpm, 4 °C, 15 mins) and the supernatant collected. Protein concentrations of whole cell extract were quantified via Bradford Assay using BIO-RAD Protein Assay Dye Reagent Concentrate.
(§2) Western blots were run on NuPAGE 4-12% Bis-Tris gels, with 30 µg of protein (whole cell extract) or an equivalent volume of histone extract loaded per lane, with all extracts dyed with 4x NuPAGE LDS Sample Buffer. PageRuler Plus Prestained Ladder was used as a reference. Gel electrophoresis was carried out at 140 V for 60-90 mins, following which the proteins were transferred onto nitrocellulose membrane at 30 V for 60 mins. Membranes were blocked in LI-COR Intercept Blocking Buffer overnight at RT on a roller, following which the membrane was probed with primary antibodies for 1 h at RT. The membrane was washed with PBS + 0.1% Tween (3 x 10 mins), then incubated with secondary antibodies for 50 mins at RT. The membrane was washed again (PBS Tween 2 x 10 mins, PBS 1 x 10 mins) following which the blot was visualised with the Odyssey Infrared Imaging System. Image processing and quantification was performed with ImageStudio Lite. […]
(§3) a-tubulin (mouse) – Sigma, t5168 (1:10000 dilution)

Another series relates to HCT116 cells. Description: CTG cell viability assay. The format is cell-based, human. The conditions noted are these: HCT116, CellTiter-Glo, 0.0041-10 uM, 24-48 h (Fig. S3). Here is the method: 2.4. CTG cell viability assays
HCT116 cells were seeded onto 96-well plates at a density of 2000 cells/well and allowed 24 h to settle. Cells were then treated with LSD1 inhibitors (0.0041-10 uM) alongside WT, DMSO and cell free control wells for 24-48 h. After this time, plates were equilibrated to RT for 30 mins, then CellTiter-Glo (Promega, G9242) reagent (5 uL/100 uL media) was added. Cells were lysed on an orbital shaker for 10 mins, then incubated at RT for 2 mins to allow luminescence to stabilise, following which luminescence was recorded on a HiDEX Sense microplate reader. To obtained plotted values, luminescence of each tested well was divided by that of the DMSO control, which were plotted against concentration using GraphPad Prism. […] was applied to obtain apparent IC50 values where possible.
Figure S3. Cell viability dose response curves
(1 picture or pasted object on this page, not shown here)

Another series concerns LSD1. The arrangement: method as in PMID 38742921. The settings on record: cited from earlier work.
In another series the target is T1, LSD1 in HCT116 cells (Homo sapiens, UniProt O60341).
T1 construct: host or cells: HCT116
Description: LSD1 degradation (LSD1 abundance) by western blot. The format is cell-based. Here is the method:
Using the same conditions, we also determined the effects of SP2509, 25, 27, 28, 30 and 31 on histone H3 lysine 4 dimethyl (H3K4me2) a validated substrate for LSD1 using a specific antibody for H3K4me2 (Fig. S4 ^†).
Compounds were tested at concentration ranges of 0.2–20 μM and LSD1 abundance was quantified at 24 hours (Fig. S5 ^†). 49, 52 and 54 were also evaluated at 48 and 72 hours. […] We also determined the effects of these compounds on the histone methyl marker H3K4me2 (Fig. S5 and S6 ^†).
2.5 Protocols for LSD1 degradation and histone methylation in HCT116 cells HCT116 human colon carcinoma cells were grown in Dulbecco’s Modified Eagle Medium (DMEM) supplemented with Fetal Bovine Serum (FBS, 10% final concentration) and 1x glutamine/penicillin/streptomycin. Cells were incubated at 37 °C and 5% CO2. Cells were treated […]
untreated (WT) cells were included as controls.
as §1
H2SO4 (0.4 M, equal volume) was added to the pellets for histone extraction and the tubes incubated overnight at 4 °C. Following this, the histone extract was centrifuged (15000 rpm, 4 °C, 15 mins) and the supernatant collected. Protein concentrations of whole cell extract were quantified via Bradford Assay using BIO-RAD Protein Assay Dye Reagent Concentrate. […]
as §2, with “or” for “Western blots were run on NuPAGE 4-12% Bis-Tris gels, with 30 µg of protein (whole cell extract) or”
as §3
On the technique in general: Immunoblotting shows a protein as a band on a membrane.

Series [1] has as its target T2, HDAC1-CoREST-LSD1 complex (Homo sapiens, UniProt O60341).
T2 construct: full length native LSD1 (UniProt ID: O60341); made in house; host or cells: HEK 293F cells (co-transfection, pcDNA3 vectors)
The series is described as follows: LSD1 HRP-coupled demethylase assay, TCP analogues. The settings on record: for inhibition at 50 µM: read-out: LSD1 inhibition at 50 μM. The format is biochemical. Here is the method:
We then evaluated LSD1 inhibition in the LSD1-HDAC1-CoREST complex using the established horseradish peroxidase (HRP) assay.[8]
2. Supplementary Information: Biology
2.1. LSD-HDAC1-CoREST expression and purification
Lysis Buffer (Buffer A) Wash Buffer (Buffer B)
• 50 mM Tris/Cl pH 7.5 • 50 mM Tris/Cl pH 7.5
• 50 mM Potassium Acetate • 50 mM Potassium Acetate […]
Cleavage Buffer (Buffer C) Gel Filtration Buffer (Buffer D)
• 50 mM Tris/Cl pH 7.5 Filtered at vacuum.
• 50 mM Potassium Acetate • 50 mM Tris/Cl pH 7.5
• 5 % v/v Glycerol • 50 mM Potassium Acetate
• 0.5 mM tris(2- • 0.5 mM TCEP carboxyethyl)phosphine (TCEP)
The CoREST ternary complex was comprised of full length native LSD1 (UniProt ID: O60341), full length HDAC1 (UniProt ID: Q13547) and N-terminally truncated RCOR1 (86-485aa) (UniProt ID:
Q9UKL0). Protein constructs were cloned into pcDNA3 vector. The RCOR1 constructs contained an N-terminal (His)10(Flag)3 tag followed by a Tev protease cleavage site. The constructs for ternary complex were co-transfected into suspension-grow HEK 293F cells (Thermofisher Scientific) with polyethylenimine (PEI) (Sigma) and harvested after 48 hours. This section of the procedure was carried out as described previously in literature.11,12
Cell pellets from 1.2 L culture were defrosted, and buffer A (30 mL) was added. The solution was sonicated (Soniprep 150) in an beaker of ice using a 9 mm probe at 10 ampules; operated with 10 […]
Components and concentrations for the HRP-coupled demethylase assay […]
The assay components are shown at their final concentrations per well in the table above. CoREST complex (HDAC 1/RCOR1/LSD1) was added to the assay buffer alongside either DMSO or the relevant inhibitor at the desired concentration on black-walled 96 well plates. Alongside this was another control, with DMSO but no CoREST or inhibitor. Plates were spun to 3000 rpm between each addition of a reagent. Plates were incubated at 20 °C for 30 mins, following which HRP/Amplex Ultrared (1:1 mixture) and peptide was added. Plates were spun, then read on an PerkinElmer 2030 Explorer plate reader, with excitation of 530 nm and […] of 590 nm, with 7 readings taken over […]
Components, where bought in, are listed below:
HRP – Pierce™ Horseradish Peroxidase, Invitrogen
H3K4me2 peptide – Histone H3 dimethyl lysine-4 peptide, Enzo Life Sciences Amplex UltraRed, ThermoFisher Scientific
To the assay buffer was added HRP/AMP in each well to concentrations equal to those in above, following which hydrogen peroxide solution (diluted from 3% hydrogen peroxide solution into a 20 mM stock) was added, in a 1 in 3 dilution series with final concentrations starting from 3 mM.
Negative control wells contained either 100% buffer or as above with no hydrogen peroxide solution.

[2] abbreviates: HCT116, 0.2–20 μM, 24 hours, LSD1 antibody.
Where [3] appears, read: complex 50 nM, mean ± SD from three replicates.

Regarding `N[C@@H]1C[C@H]1c1ccccc1` (racemic) [TCP, tranylcypromine], the “H3K4me2 histone methyl marker” value in the series on H3K4me2 in HCT116 cells is listed as “neither did we observe changes; also recorded: did not increase H3K4me2 levels”. Besides, the “cytotoxic effects in cells” value with HCT116 cells is recorded as “not observed”. Moreover, in the series on LSD1, the “ability to increase H3K4me2 on peptides and nucleosomes” value is “increased H3K4me2 levels”.

The term IC50 denotes the concentration that gives 50% inhibition. Read a low IC50 as inhibition by little substance. As a reminder, the inhibition is the percentage by which the read-out fell short of the control. As to `Cc1ncsc1-c1ccc(CNC(=O)[C@@H]2C[C@@H](O)CN2C(=O)[C@@H](NC(=O)COCCOCCOCCNC(=O)c2ccc([C@@H]3C[C@H]3N)cc2)C(C)(C)C)cc1` [compound 49], the “H3K4me2 histone methyl marker” value in the series with H3K4me2 in HCT116 cells was “no changes”. For the same molecule, the LSD1 degradation entry is on record as “no degradation” at LSD1 in HCT116 cells (setting [2]); “no degradation” at LSD1 in HCT116 cells (HCT116, 48 and 72 hours). The IC50 in series [1] (setting [3]) worked out at 63 nM. Further, the inhibition at 50 µM in series [1] (single concentration 50 μM, complex 50 nM, compared to no compound treatment control) turned out to be 100%.

Take `N[C@H]1CC[C@H](N[C@@H]2C[C@H]2c2ccccc2)CC1` [ORY1001, reference compound]: the “H3K4me2 histone methyl marker” value in the series on H3K4me2 in HCT116 cells was “neither did we observe changes; also recorded: did not increase H3K4me2 levels”. In addition, the “cytotoxic effects in cells” value in the series on HCT116 cells is listed as “not observed”. In addition, the inhibition at 50 µM in series [1] stood at 100%.

With `N[C@@H]1C[C@H]1c1ccc(C(=O)NCCc2ccc(OCCCCCCCCCCCC(=O)NCCNc3cccc4c3C(=O)N(C3CCC(=O)NC3=O)C4=O)cc2)cc1` (stereo partly drawn) [compound 54], in the series on H3K4me2 in HCT116 cells, the “H3K4me2 histone methyl marker” value is recorded as “no changes”. Also, the LSD1 degradation entry is “no degradation” on LSD1 in HCT116 cells (setting [2]); “no degradation” at LSD1 in HCT116 cells (HCT116, 48 and 72 hours). Besides, the IC50 in series [1] (complex 50 nM) is 280 nM; in series [1] (setting [3]) it was 282 ± 40 nM.

For `COc1ccc(-c2c(-c3ccc(C#N)c(F)c3)nc(N3CCC(N)CC3)n(C)c2=O)cc1F` [CC-90011], in the series with LSD1, the “ability to increase H3K4me2 on peptides and nucleosomes” value is on record as “increased H3K4me2 levels”.

Consider `C/C(=N\NC(=O)c1cccc(S(=O)(=O)N2CCOCC2)c1)c1cc(OCCCCCCCC(=O)N[C@H](C(=O)N2C[C@H](O)C[C@H]2C(=O)NCc2ccc(-c3scnc3C)cc2)C(C)(C)C)ccc1O` [compound 28], for which, in the series with H3K4me2 in HCT116 cells (HCT116, 0.1–10 μM, 24 hours, H3K4me2 antibody), the H3K4me2 abundance entry is “no increase in H3K4me2”.
